The text below walks through data of PubChem BioAssay (NCI).

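96-well plates; 48 h exposure; 5 concentrations. Endpoints by linear interpolation between flanking doses. Not reached: highest tested concentration assigned. TGI: concentration producing complete growth inhibition.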 A value given as a limit tells only on which side of the number the result lay.

Assay in all cases: inhibition of tumour cell growth, NCI panel, 48 h
The subject of assay [1] is OVCAR-3 ovarian.
Assay [2] deals with HCC-2998 colon.
For assay [3], the system named is SK-OV-3 ovarian.
Assay [4] deals with OVCAR-4 ovarian.
The test system of assay [5] is SF-268 CNS.
Assay [6] has as its system HCT-15 colon.
Assay [7] relates to HOP-62 NSCLC.
For assay [8], the system named is NCI-H226 lung.
In assay [9] the test system is A498 renal.
In assay [10] the test system is SR leukemia.
Assay [11] concerns KM12 colon.
Assay [12] concerns COLO 205 colon.
For assay [13], the system named is SF-295 CNS.
In assay [14] the test system is LOX IMVI melanoma.
In assay [15] the test system is HOP-92 NSCLC.
Assay [16] relates to SK-MEL-5 melanoma.

On to `O=C(c1ccccc1)c1ccc(OCCOc2ccc(Nc3ccccc3)cc2)cc1`, for which the TGI in assay [1] was greater than 100 µM; in [2], greater than 100 µM; in assay [3], 64.4 µM; in [4], 54.8 µM; in assay [5], greater than 100 µM; in assay [6] it was greater than 100 µM. Besides, the TGI in [7] was 81.2 µM; in assay [8], greater than 100 µM; in assay [9] it was 79 µM; in [10], greater than 100 µM; in assay [11] it was greater than 100 µM; in [12] it was greater than 100 µM. The TGI was 93.9 µM in assay [13], greater than 100 µM in [14], 73.5 µM in assay [15] and greater than 100 µM in assay [16].
For `O=C(O)Cc1cccc2c1Oc1ccccc1S2`, the TGI in assay [1], in assay [2], in assay [3], in assay [4], in [5] and in [6] was greater than 100 µM in each case. Moreover, the TGI in assay [7], in [8], in [9], in [11], in assay [12] and in [13] was greater than 100 µM each time. Moreover, the TGI in assay [14], in assay [15] and in assay [16] was greater than 100 µM throughout.
On to `O=C1CCCC/C1=C1\C(=O)Nc2cc(F)ccc21`, for which the TGI in assay [2], in assay [3], in assay [4], in assay [5], in assay [6] and in assay [7] was greater than 100 µM throughout. The TGI in assay [8], in assay [9], in assay [11], in assay [12], in assay [13] and in assay [14] was greater than 100 µM each time. In addition, the TGI in assay [15] and in assay [16] was greater than 100 µM throughout.
With `COc1cc(-c2cc(=O)c3c(O)c(OC)c(OC)c(OC)c3o2)ccc1O`, the TGI in assay [1] was greater than 100 µM; in assay [2], greater than 100 µM; in assay [3], 76 µM; in assay [5], greater than 100 µM; in [6] it was 43.1 µM; in [7], 77.3 µM. Besides, the TGI in assay [9] was 17.6 µM; in assay [10], greater than 100 µM; in assay [11], greater than 100 µM; in assay [13], 60.5 µM; in assay [14], 68.8 µM; in [15] it was 40.1 µM. For the same compound, in [16], the TGI is 47.8 µM.
Take `CCCc1c[nH]c(-c2ccc(-c3cc(CCC)c(C=O)[nH]3)s2)c1`: the TGI in [1] was found to be 30.8 µM; in [3], 32.8 µM; in [4] it was 35.2 µM; in assay [5], 34.6 µM; in assay [6], 29.6 µM; in [8] it was 33.3 µM. The TGI in [9] was found to be 20.5 µM; in assay [11], 28.5 µM; in assay [13] it was 33.1 µM; in assay [14] it was 27.7 µM; in assay [16] it was 30.6 µM.
With `CCCCCCCCOC(CO)CO`, the TGI in [1], in [2], in assay [3], in assay [4], in assay [5] and in [6] was greater than 100 µM each time. Besides, the TGI in [7], in [8], in assay [9], in assay [10], in assay [12] and in assay [13] was greater than 100 µM throughout. Also, the TGI in assay [14], in [15] and in assay [16] was greater than 100 µM each time.
For `CC(O)C(N=Cc1nc(-c2ccccc2)oc1O)C(=O)O` (stereo not drawn), the TGI in assay [1], in [2], in assay [3], in assay [4], in assay [5] and in assay [7] was greater than 100 µM in each case. Further, the TGI in assay [8], in assay [9], in [11], in [12], in assay [13] and in assay [14] was greater than 100 µM in each case. Moreover, the TGI in assay [15] and in [16] was greater than 100 µM each time.
As to `Cc1c(-c2nnc(-c3ccc(Cl)cc3)o2)c(=O)n(-c2ccccc2)n1C`, the TGI in [1], in assay [2], in assay [3], in assay [4], in [5] and in [6] was greater than 100 µM throughout. For the same compound, the TGI in assay [7], in assay [8], in [9], in assay [10], in assay [11] and in assay [12] was greater than 100 µM in each case. The TGI in assay [13], in assay [14] and in [15] was greater than 100 µM each time.
